Assay results: ChEMBL document CHEMBL4000202, “Identification of a diverse synthetic abietane diterpenoid library for anticancer activity” (Bioorg Med Chem Lett, 2017)
pIC50: −log10 of the molar value.

Legend:
Format in all cases: functional, cell-based
[1] = test system: SK-OV-3; assay: Cytotoxic activity against human SKOV3 cells assessed as reduction in cell viability after 72 hrs by SRB assay; details: SK-OV-3, 72 h
[2] = test system: A549; assay: Cytotoxic activity against human A549 cells assessed as reduction in cell viability after 72 hrs by SRB assay; details: A549, 72 h
[3] = test system: PC-3; assay: Cytotoxic activity against human PC3 cells assessed as reduction in cell viability after 72 hrs by SRB assay; details: PC-3, 72 h

| SMILES | pIC50 [1] | pIC50 [2] | pIC50 [3] |
| --- | --- | --- | --- |
| C=C1[C@H](O[Si](C)(C)C(C)(C)C)CC[C@]2(C)c3ccccc3CC[C@@H]12 | 4.04 | 4.01 | < 4.00 |
| COC(=O)[C@]1(C)CCC[C@]2(C)c3ccc(C(C)C)c([N+](=O)[O-])c3CC[C@@H]12 | < 4.00 | < 4.00 | < 4.00 |
| C=CCc1cc(C(C)C)c(O)c2c1[C@@]1(C)CCC3=C(COC3=O)[C@@H]1CC2=O | 4.06 | 4.01 | 4.02 |
| C[C@]12CC=C3C(=O)OC[C@@H]3[C@@H]1CCc1ccccc12 | < 4.00 | < 4.00 | < 4.00 |
| O=c1[nH]cc(F)c(=O)[nH]1 [FLUOROURACIL] | 4.64 | 4.49 | 4.82 |
| CC(C)(C)C(=O)OC[C@H]1[C@H](O)CC[C@]2(C)c3ccccc3CC[C@@H]12 | 4.36 | 4.19 | 4.31 |
| C=C1[C@H](O)CC[C@]2(C)c3ccc(C(C)C)c(OC)c3CC[C@@H]12 | < 4.00 | 4.00 | < 4.00 |
| COc1c(C(C)C)ccc2c1CC[C@H]1C3=C(CC[C@]21CO)C(=O)OC3 | < 4.00 | < 4.00 | < 4.00 |
| COC(=O)[C@]1(C)CCC[C@@]2(C)[C@H]1CC=C1C(=O)[C@@](O)(C(C)C)CC[C@@H]12 | 4.00 | 4.07 | < 4.00 |
| C=C1C(=C(SC)SC)CC[C@]2(COCOCC)c3ccc(C(C)C)c(OC)c3CC[C@@H]12 | 4.59 | 4.00 | 4.71 |
| COC(=O)[C@]1(C)CCC[C@]2(C)c3ccc(C(C)C)c(O)c3CC[C@@H]12 | 4.37 | 4.25 | 4.65 |
| C=C1C(=C(SC)SC)CC[C@]2(CO)c3ccc(C(C)C)c(OC)c3CC[C@@H]12 | 4.48 | 4.27 | 4.30 |
| C=C1CCC[C@]2(C)c3ccc(C(C)C)c(OC)c3CC[C@@H]12 | < 4.00 | 4.00 | < 4.00 |
| COC(=O)[C@]1(C)CCC[C@]2(C)c3cc([N+](=O)[O-])c(C(C)C)cc3CC[C@@H]12 | 4.32 | 4.05 | 4.09 |
| COc1c(C(C)C)ccc2c1CC[C@H]1[C@@H]3COC(=O)[C@@H]3CC[C@]21C | < 4.00 | < 4.00 | < 4.00 |
| COc1c(C(C)C)ccc2c1CC[C@H]1[C@H]3COC(=O)[C@H]3CC[C@]21C | < 4.00 | < 4.00 | < 4.00 |
| COc1cccc2c1CC[C@H]1[C@H]3COC(=O)C3=CC[C@]21C | < 4.00 | 4.05 | < 4.00 |
| C[C@]12CCC3=C(COC3=O)[C@@H]1CCc1ccccc12 | < 4.00 | < 4.00 | < 4.00 |
| COc1cccc2c1CC[C@H]1[C@@H](CO)[C@H](O[Si](C)(C)C(C)(C)C)CC[C@]21C | < 4.00 | < 4.00 | < 4.00 |
| COc1c(C(C)C)ccc2c1CC[C@H]1[C@@H](O)CCC[C@]21C | < 4.00 | < 4.00 | 4.01 |
| C=C1C(=O)CC[C@]2(C)c3ccc(C(C)C)c(OC)c3CC[C@@H]12 | 5.13 | 5.03 | 5.14 |
| C=CCOc1c(C(C)C)ccc2c1C(=O)C[C@H]1C3=C(CC[C@]21C)C(=O)OC3 | 4.08 | < 4.00 | 4.01 |

| SMILES | pIC50 [1] | pIC50 [2] | pIC50 [3] |
| --- | --- | --- | --- |
| COC(=O)[C@]1(C)CCC[C@]2(C)c3ccc(C(C)C)c(OC)c3C(=O)C[C@@H]12 | < 4.00 | < 4.00 | 4.00 |
| COc1c(C(C)C)ccc2c1CC[C@@]1(O)C3=C(CC[C@]21C)C(=O)OC3 | < 4.00 | < 4.00 | < 4.00 |
| COc1c(C(C)C)ccc2c1CC=C1C3=C(CCC12C)C(=O)OC3 (single isomer, unassigned) | 4.62 | 4.13 | 4.32 |
| CC(C)c1ccc2c(c1O)C(=O)C[C@H]1C3=C(CC[C@]21C)C(=O)OC3 | 4.37 | 4.11 | 4.24 |
| C=CCOc1cccc2c1C(=O)C[C@H]1C3=C(CC[C@]21C)C(=O)OC3 | < 4.00 | 4.05 | < 4.00 |
| C=C1C(CO)=CC[C@]2(C)c3ccc(C(C)C)c(OC)c3C(=O)C[C@@H]12 | < 4.00 | < 4.00 | < 4.00 |
| COc1c(C(C)C)ccc2c1C=C[C@H]1C3=C(CC[C@]21C)C(=O)OC3 | < 4.00 | < 4.00 | < 4.00 |
| COc1c(C(C)C)ccc2c1CC[C@H]1[C@@H](CO)[C@H](O)CC[C@]21C | < 4.00 | < 4.00 | < 4.00 |
| COC(=O)[C@]1(C)CCC[C@]2(C)c3ccc(C(C)C)c(OC)c3[C@H](O)C[C@@H]12 | 4.14 | 4.12 | 4.25 |
| CC(C)C1=CC2=CC[C@@H]3[C@](C)(CCC[C@@]3(C)C(=O)O)[C@H]2CC1 [ABIETIC ACID] | 4.04 | < 4.00 | < 4.00 |
| CCOCC[C@]12CCC3=C(COC3=O)[C@@H]1CCc1c2ccc(C(C)C)c1OC | < 4.00 | < 4.00 | < 4.00 |
| C=CCc1ccc2c(c1O)C(=O)C[C@H]1C3=C(CC[C@]21C)C(=O)OC3 | 4.40 | 4.02 | 4.17 |
| COC(=O)[C@]1(C)CCC[C@@]2(C)[C@H]1CC=C1[C@@H]2CC[C@](O)(C(C)C)[C@H]1O | 4.03 | 4.03 | < 4.00 |
| C=C1[C@@H]2CC(=O)c3c(ccc(C(C)C)c3OC)[C@@]2(C)CC[C@@]1(O)CO | 4.23 | 4.60 | 4.57 |
| COC(=O)[C@]1(C)CCC[C@]2(C)c3ccc(C(C)C)c(OC)c3CC[C@@H]12 | 4.19 | < 4.00 | 4.22 |
| COc1c(C(C)C)ccc2c1CC[C@H]1C(=O)CCC[C@]21CO[N+](=O)[O-] | < 4.00 | < 4.00 | < 4.00 |
| COc1c(C(C)C)ccc2c1CC[C@H]1c3cocc3CC[C@]21C | 4.67 | 4.56 | 4.71 |
| CC(C)[C@]12O[C@H]1[C@@H]1O[C@]13[C@]1(O[C@H]1C[C@H]1C4=C(CC[C@@]13C)C(=O)OC4)[C@@H]2O [TRIPTOLIDE] | 8.14 | 7.76 | 7.74 |
| COc1cccc2c1CC[C@H]1[C@H]3COC(=O)[C@@]3(O)C(=O)C[C@]21C | < 4.00 | < 4.00 | < 4.00 |
| COC(=O)[C@]1(C)CCC[C@@]2(C)[C@H]1CC=C1C=C(C(C)C)CC[C@@H]12 [METHYL ABIETATE] | 4.09 | 4.20 | 4.10 |
| COc1c(C(C)C)ccc2c1CC[C@H]1[C@@H](O)CCC[C@]21CO[N+](=O)[O-] | < 4.00 | < 4.00 | < 4.00 |
| CC(C)c1ccc2c(c1O)C(=O)C[C@H]1C3=C(CC[C@]21CO)C(=O)OC3 | 4.02 | < 4.00 | 4.04 |
